According to US20130197032A1, “[…] COMPOUNDS FOR THE TREATMENT OF NEUROLOGICAL AND […] DISORDERS” (A. CARLSSON RESEARCH AB, priority 2010, published 2013):
Read-outs that look alike come from different tables or passages of the source.

How the values were obtained:
[1] = system: active rats; experiment: Motor activity in active rats, video tracking; assay type: in vivo; details: 30, 60, 120 μmol/kg sc 30 minutes prior to recording
Description: Motor activity experiments in both active and habituated rats were performed on male Sprague-Dawley rats (Charles River, Germany) weighing 280-320 g. Prior to testing, rats were housed in groups of four or five in ventilated Macrolon type IV cages for approximately one week.
The rats were housed in reverse daylight cycle and all handling of the animals was performed in dim light. Test drugs were administered s.c. 30 minutes prior to registration of behavior. Single rats were introduced into rectangular arenas (l/w/h: 150×100×40 cm) illuminated indirectly by one infrared (IR) lamp (Neocom, South Korea). The rats' movements were recorded to digital (MPEG2) video files using an IR sensitive video camera (Panasonic WV-CPR480, lens: Panasonic LA-408C3) connected to a PC equipped with a MPEG-encoder (MVR1000SX, Canopus Co.).
Suspected outliers were evaluated one at the time with Grubbs' test for outliers (Grubbs F E (1969) Procedures for detecting outlying observations in samples. Technometrics 11(1):1-21).
The third series of experiments was performed in drug naive rats (FIG. 8). Rats were injected sc with saline (C, 0.9%) or either test drug 30 minutes prior to video recording. […] Behavior was registered under infrared light in rectangular arenas (150×100×40 cm) by video tracking. Motor activity is shown as velocity. Shown are means and SEM.

[2] = biological target: human norepinephrine transporter (NET) (Homo sapiens, UniProt P23975); experiment: Equilibrium radioligand binding to NET; details: displacement of 3H-Imipramine
human norepinephrine transporter (NET), sequence (P23975 whole entry): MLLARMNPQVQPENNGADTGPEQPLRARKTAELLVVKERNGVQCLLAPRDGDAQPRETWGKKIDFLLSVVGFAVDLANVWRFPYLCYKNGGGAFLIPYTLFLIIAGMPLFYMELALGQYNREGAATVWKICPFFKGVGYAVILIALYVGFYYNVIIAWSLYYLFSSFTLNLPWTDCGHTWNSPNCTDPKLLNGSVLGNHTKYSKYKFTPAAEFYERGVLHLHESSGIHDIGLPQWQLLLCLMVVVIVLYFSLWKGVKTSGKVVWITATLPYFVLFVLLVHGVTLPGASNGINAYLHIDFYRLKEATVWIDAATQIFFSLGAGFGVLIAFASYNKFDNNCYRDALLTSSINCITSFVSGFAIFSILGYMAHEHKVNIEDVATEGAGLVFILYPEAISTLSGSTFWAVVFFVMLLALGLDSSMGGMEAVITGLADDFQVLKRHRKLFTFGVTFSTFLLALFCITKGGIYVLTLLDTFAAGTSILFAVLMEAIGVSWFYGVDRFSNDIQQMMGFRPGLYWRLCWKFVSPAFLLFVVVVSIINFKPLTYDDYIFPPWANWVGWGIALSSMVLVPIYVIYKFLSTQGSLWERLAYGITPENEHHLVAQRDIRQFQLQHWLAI
Description: Cells were not centrifuged following cell scraping, but were collected directly into the ice-cold nitrogen cavitation chamber.
Membranes were prepared as described above. […] Binding reactions were terminated by filtration through UniFilter-96GF/B filters (from Perkin-Elmer, presoaked with 0.1% polyethylenimine for 1 h) with a Brandel 96-well harvester. Filters were washed with ice-cold wash buffer (50 mM Tris, 120 mM NaCl, pH7.4; 500 ml/plate) and then allowed to air-dry for 30 min. 50 μl MacrosScint-20 scintillation cocktail was added to each well, the plates were sealed, and then counted on a Top-Count (Packard).

[3] = system: drug naive mice; experiment: Head twitch induction in mice; assay type: in vivo; details: DOI 1 mg/kg ip, OSU6162 enantiomers 9.375-300 μmol/kg ip, 10 min before registration
Description: The animals used in the head twitch experiments were individually placed in Macrolon type II cages and allowed to habituate to these test cages during 30 minutes before the video registration of behavior began. […] The animals were videotaped for 10 minutes; the behavior was scored during the first 5 minutes. The number of head twitches was counted from the videotapes by a person blind to the treatment.
In FIG. 5, the number of head twitches produced during 5 minutes is shown. The mice were habituated to the test cages during 30 minutes before the video registration of behavior began. […] Shown are means and SEM, n=6-12.

[4] = biological target: T1, human M4 receptor (Homo sapiens, UniProt P08173); experiment: R-SAT assay M4; assay type: cell-based; details: Table 3, M4; percent response of reference Carbachol
T1 construct: expressed in transfected cells; host or cells: NIH/3T3
T1 sequence (P08173 1-479): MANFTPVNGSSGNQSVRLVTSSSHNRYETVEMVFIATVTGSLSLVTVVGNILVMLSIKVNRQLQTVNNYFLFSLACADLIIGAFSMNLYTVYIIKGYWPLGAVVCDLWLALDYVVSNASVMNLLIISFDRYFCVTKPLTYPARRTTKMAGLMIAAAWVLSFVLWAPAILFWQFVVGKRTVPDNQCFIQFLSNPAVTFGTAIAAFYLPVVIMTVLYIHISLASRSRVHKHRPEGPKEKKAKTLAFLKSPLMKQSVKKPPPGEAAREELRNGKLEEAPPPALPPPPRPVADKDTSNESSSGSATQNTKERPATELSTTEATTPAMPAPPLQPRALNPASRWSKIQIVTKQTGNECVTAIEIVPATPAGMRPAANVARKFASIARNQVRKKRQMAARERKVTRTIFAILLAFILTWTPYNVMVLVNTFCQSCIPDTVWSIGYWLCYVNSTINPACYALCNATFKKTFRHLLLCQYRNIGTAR

[5] = system: reserpine-pretreated mice; experiment: Motor activity in monoamine-depleted (reserpine-pretreated) mice, video tracking; details: for motor activity (distance moved, DM 1.5): reserpine 10 mg/kg ip 20 h prior, test drug ip just prior to recording, first 30 minutes, vs reserpine only group
[6] = biological target: T2, human M3 receptor (Homo sapiens, UniProt P20309); experiment: R-SAT assay M3; assay type: cell-based; details: Table 3, M3; percent response of reference Carbachol
T2 construct: expressed in transfected cells; host or cells: NIH/3T3
T2 sequence (P20309 whole entry): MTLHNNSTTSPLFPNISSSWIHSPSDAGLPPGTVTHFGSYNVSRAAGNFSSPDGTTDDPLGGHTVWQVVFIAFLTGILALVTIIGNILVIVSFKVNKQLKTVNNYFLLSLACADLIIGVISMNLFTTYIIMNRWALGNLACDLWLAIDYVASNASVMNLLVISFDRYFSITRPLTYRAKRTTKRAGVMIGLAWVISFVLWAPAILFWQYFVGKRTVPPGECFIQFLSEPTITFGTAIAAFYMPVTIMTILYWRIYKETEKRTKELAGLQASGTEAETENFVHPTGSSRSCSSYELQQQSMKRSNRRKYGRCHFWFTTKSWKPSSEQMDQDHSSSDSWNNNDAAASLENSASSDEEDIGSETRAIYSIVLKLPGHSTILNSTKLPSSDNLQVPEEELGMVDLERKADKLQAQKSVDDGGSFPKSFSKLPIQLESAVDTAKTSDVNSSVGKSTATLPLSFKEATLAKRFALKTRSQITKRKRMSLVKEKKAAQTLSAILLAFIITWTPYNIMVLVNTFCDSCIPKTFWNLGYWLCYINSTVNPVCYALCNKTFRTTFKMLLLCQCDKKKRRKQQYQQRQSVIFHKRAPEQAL

[7] = biological target: T3, human alpha2A receptor (Homo sapiens, UniProt P08913); experiment: R-SAT assay α2A; assay type: cell-based; details: Table 3, α2A; percent response of reference UK 14,306
T3 construct: expressed in transfected cells; host or cells: NIH/3T3 cells, transient transfection, pSI vector
T3 sequence (P08913 whole entry): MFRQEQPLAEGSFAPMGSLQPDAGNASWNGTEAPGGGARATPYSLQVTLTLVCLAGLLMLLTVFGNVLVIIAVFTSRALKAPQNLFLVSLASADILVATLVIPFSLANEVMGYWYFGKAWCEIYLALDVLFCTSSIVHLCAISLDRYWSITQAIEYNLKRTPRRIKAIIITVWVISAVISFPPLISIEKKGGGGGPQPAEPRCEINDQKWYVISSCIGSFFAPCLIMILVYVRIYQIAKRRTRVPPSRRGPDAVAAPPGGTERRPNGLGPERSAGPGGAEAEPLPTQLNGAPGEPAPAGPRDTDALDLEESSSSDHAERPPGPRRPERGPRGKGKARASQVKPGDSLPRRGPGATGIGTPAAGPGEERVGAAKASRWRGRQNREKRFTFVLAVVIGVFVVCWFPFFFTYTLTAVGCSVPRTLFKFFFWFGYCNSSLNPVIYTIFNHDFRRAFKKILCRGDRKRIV

[8] = biological target: T4, human 5-HT2C(vgv) receptor (Homo sapiens, UniProt P28335, I156V/I160V/N158G); experiment: R-SAT assay 5-HT2C; assay type: cell-based; details: Table 3, 5-HT2C; for EC50: negative logarithm of EC50 in molar; for Eff (%): percent response of reference 5-CT
T4 construct: expressed in transfected cells; host or cells: NIH/3T3
T4 sequence (P28335 33-458 I156V/N158G/I160V): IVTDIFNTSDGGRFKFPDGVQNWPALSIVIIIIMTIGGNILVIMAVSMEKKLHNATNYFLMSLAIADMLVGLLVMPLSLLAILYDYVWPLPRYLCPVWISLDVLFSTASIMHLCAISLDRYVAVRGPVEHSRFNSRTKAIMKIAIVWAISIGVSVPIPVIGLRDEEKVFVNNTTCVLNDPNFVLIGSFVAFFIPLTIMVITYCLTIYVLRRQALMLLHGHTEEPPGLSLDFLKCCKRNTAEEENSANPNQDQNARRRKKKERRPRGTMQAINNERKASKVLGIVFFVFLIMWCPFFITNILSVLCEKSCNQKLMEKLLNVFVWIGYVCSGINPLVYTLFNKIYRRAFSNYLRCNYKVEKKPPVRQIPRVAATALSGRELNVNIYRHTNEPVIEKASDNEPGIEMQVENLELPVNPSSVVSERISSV

[9] = biological target: human 5-HT2A receptors (Homo sapiens, UniProt P28223); experiment: BRET2 beta-arrestin-2 recruitment assay at 5-HT2A; assay type: cell-based; set-up: expressed in transfected cells; host or cells: HEK-293T; details: mean ± SEM; for EC50: negative logarithm of EC50 in molar (M), HEK 293T cells, read-out: BRET2 pEC50 (converted); for BRET2 Eff %: percent response of reference ligand 5-HT
human 5-HT2A receptors, sequence (P28223 whole entry): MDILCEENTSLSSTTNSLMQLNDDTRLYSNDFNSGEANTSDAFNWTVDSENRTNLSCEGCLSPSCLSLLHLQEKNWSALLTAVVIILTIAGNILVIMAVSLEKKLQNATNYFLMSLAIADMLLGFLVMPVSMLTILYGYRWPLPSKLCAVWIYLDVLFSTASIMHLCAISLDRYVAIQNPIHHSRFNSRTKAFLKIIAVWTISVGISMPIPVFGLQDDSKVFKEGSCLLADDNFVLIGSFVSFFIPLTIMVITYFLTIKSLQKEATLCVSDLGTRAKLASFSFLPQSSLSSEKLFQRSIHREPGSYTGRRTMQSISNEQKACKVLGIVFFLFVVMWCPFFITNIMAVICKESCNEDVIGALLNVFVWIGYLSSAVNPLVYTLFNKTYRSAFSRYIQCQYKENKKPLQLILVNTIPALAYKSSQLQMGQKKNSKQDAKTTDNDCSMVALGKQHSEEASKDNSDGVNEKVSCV
Description: BRET-2 signals were measured using the multiplate reader Mithras 940LB (Berthold Technologies, Bad Wildbad, Germany) and were calculated as the ratio between the Renilla luciferase emission and the GFP2 emission corrected by the background emissions of non-transfected cells.

[10] = biological target: D2 receptors (Homo sapiens, UniProt P14416); experiment: R-SAT functional assay at D2; assay type: cell-based; set-up: expressed in transfected cells; host or cells: NIH-3T3; details: for R-SAT Eff(%): percent response of reference ligand pergolide
D2 receptors, sequence (P14416 1-414 isoform P14416-2): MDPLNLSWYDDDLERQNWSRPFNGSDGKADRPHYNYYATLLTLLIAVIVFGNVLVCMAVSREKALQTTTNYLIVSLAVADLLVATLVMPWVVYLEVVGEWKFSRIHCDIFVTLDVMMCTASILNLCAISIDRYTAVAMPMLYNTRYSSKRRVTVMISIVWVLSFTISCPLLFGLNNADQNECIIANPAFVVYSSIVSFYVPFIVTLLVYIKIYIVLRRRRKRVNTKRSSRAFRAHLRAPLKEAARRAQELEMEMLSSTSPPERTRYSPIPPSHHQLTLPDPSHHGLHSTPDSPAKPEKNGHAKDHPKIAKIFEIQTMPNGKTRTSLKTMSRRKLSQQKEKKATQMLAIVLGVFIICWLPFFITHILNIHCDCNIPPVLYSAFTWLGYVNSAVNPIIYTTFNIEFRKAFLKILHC

[11] = biological target: T5, human M1 receptor (Homo sapiens, UniProt P11229); experiment: R-SAT assay M1; assay type: cell-based; details: Table 3, M1; percent response of reference Carbachol
T5 construct: expressed in transfected cells; host or cells: NIH/3T3
T5 sequence (P11229 whole entry): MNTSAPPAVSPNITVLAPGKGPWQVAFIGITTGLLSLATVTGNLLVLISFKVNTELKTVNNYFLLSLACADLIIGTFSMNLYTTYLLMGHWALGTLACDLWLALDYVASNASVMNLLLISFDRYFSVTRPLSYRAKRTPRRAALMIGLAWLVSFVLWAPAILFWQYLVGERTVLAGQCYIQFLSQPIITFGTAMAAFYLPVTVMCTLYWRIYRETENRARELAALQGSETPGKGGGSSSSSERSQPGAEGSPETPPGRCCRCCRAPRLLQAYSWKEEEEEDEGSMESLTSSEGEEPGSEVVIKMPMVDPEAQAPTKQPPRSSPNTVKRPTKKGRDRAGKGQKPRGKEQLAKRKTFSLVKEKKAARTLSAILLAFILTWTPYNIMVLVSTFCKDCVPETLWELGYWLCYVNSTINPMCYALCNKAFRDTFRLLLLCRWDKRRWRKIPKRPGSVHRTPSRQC

Row | Structure (SMILES) | motor activity (velocity) in active rats [1] | Inh % [2] [%] | head twitches produced during 5 minutes [3] | Eff (%) [4] [%] | motor activity (distance moved, DM 1.5) [5] | Eff (%) [6] [%] | Eff (%) [7] [%] | EC50 [8] [µM] | Eff (%) [8] [%] | EC50 [9] [M] | Eff (%) [11] [%] | other results
1 | CCCN1CCC[C@H](c2cccc(S(C)(=O)=O)c2)C1 [(+)-OSU6162, (3R)-3-[3-(methylsulfonyl)phenyl]-1-propylpiperidine] | decreased motor activity in active rats | 14 | produced head twitches but to a lesser degree than DOI | 4 | statistically significant increase in motor activity at 125, 250 and 500 μmol/kg, with a peak response at 250 μmol/kg | 6 | 5 | 31.6 | 84 | 1.58e-05 | 11 | effect on motor activity compared with the (−)-enantiomer ([5]; reserpine-pretreated mice, 250 μmol/kg ip, p<0.01): much larger effect on motor activity; BRET2 Eff % ([9]; listed as (+) OSU-6162): ~80%; BRET2 Eff % ([9]; listed as (+)-OSU-6162): 84 ± 2%; Emax at 50 µM ([10]; read-out: Eff (%), response at 50 μM): 77%; Emax at 50 µM ([10]; read-out: R-SAT Eff(%), response at 50 μM): 77%
2 | CCCN1CCC[C@@H](c2cccc(S(C)(=O)=O)c2)C1 [(−)-OSU6162, (3S)-3-[3-(methylsulfonyl)phenyl]-1-propylpiperidine] | decreased motor activity in active rats | 11 | produced head twitches but to a lesser degree than DOI | 2 | statistically significant increase in motor activity at 125 and 250 μmol/kg | 0 | 2 | 7.94 | 68 | 1e-05 | 5 | BRET2 Eff % ([9]; listed as (−) OSU-6162): approximately 60%; BRET2 Eff % ([9]; listed as (−)-OSU-6162): 63 ± 2%; R-SAT pEC50 ([10]; Table 2, negative logarithm of EC50 in molar, NIH3T3 cells, mean ± SEM): 6.1 ± 0.3; EC50 ([10]; Table 2, negative logarithm of EC50 in molar, NIH3T3 cells, mean ± SEM, read-out: R-SAT pEC50 (converted)): 0.794 µM; R-SAT Eff(%) ([10]; Table 2, mean ± SEM): 30%; R-SAT Eff(%) ([10]; Table 2, mean ± SEM, listed as (−)-OSU-6162): 36 ± 3%; EC50 ([10]; Table 3, D2, negative logarithm of EC50 in molar, read-out: pEC50 (converted)): 0.794 µM; Eff (%) ([10]; Table 3, D2, percent response of reference Pergolide): 36%
